According to patent US20230250095A1, “BENZIMIDAZOLE DERIVATIVES, PREPARATION METHOD THEREFOR AND MEDICAL USE THEREOF” (TUOJIE BIOTECH(SHANGHAI) CO., LTD., priority 2020, published 2023):

Experiment: Caco-2 permeability assay
Assay type: in vitro ADME
Conditions: human
Experimental: The apparent permeability coefficient (Papp) of the analytical drug was determined by liquid chromatography-tandem mass spectrometry (LC/MS/MS) through a Caco-2 cell model.
The transfer rate of drug from the apical end to the basal end was determined. 108 μL of HBSS (25 mM HEPES, pH 7.4) containing 10 μM test compound was added to the apical end of the upper chamber of Transwell (purchased from Corning) containing Caco-2 cells (purchased from ATCC) at a density of 6.86×10^5 cells/cm^2, and meanwhile, 8 μL of the sample was added, as an initial dosing-end sample (A-B), to a new 96-well plate to which 72 μL of HBSS (25 mM HEPES, pH 7.4) and 240 μL of acetonitrile (containing 100 nM alprazolam, 200 nM caffeine and 100 nM tolbutamide) had been added, and the plate was vortexed at 1000 rpm for 10 min. 300 μL of HBSS (25 mM HEPES, pH 7.4) was added to the basal end.
The transfer rate of drug from the basal end to the apical end was determined. 308 μL of HBSS (25 mM HEPES, pH 7.4) containing 10 μM test compound was added to wells of the basal end of the plate, and meanwhile, 8 μL of the sample was added, as an initial dosing-end sample (B-A), to a new 96-well plate to which 72 μL of HBSS (25 mM HEPES, pH 7.4) and 240 μL of acetonitrile (containing 100 nM alprazolam, 200 nM caffeine and 100 nM tolbutamide) had been added. The plate was vortexed at 1000 rpm for 10 min, and 100 μL of HBSS (25 mM HEPES, pH 7.4) was added to the apical end.
The transfer rate from the apical end to the basal end and the transfer rate from the basal end to the apical end need to be determined simultaneously.
At the end of the transfer cycle, 8 μL of the sample was taken from the dosing end (apical end of A-B flow and basal end of B-A flow) and added to 72 μL of HBSS (25 mM HEPES, pH 7.4) and 240 μL of acetonitrile (containing 100 nM alprazolam, 200 nM caffeine and 100 nM tolbutamide), and the mixture was added to a new 96-well plate. 80 μL of the liquid was taken directly from each of the basal end of the A-B flow and the apical end of the B-A flow, and added together with 240 μL of acetonitrile (containing 100 nM alprazolam, 200 nM caffeine and 100 nM tolbutamide) to a new 96-well plate. The plates were vortexed at 1000 rpm for 10 min. The samples were centrifuged at 4000 rpm for 30 min. 100 μL of the supernatant was transferred to a new 96-well plate. All samples were analyzed by LC-MS/MS with 100 μL of pure water.
Data were calculated using Microsoft Excel and peak areas were calculated from the chromatograms. The apparent permeability coefficient (Papp) is in cm/s and is calculated using the following formula: […]
Papp is apparent permeability (cm/s×10^−6);
The outflow ratio can be determined by the following equation: […]

- Papp A→B at 10 μM (Caco-2, 10 μM test compound, apical to basal, pH 7.4): 8.1 ×10⁻⁶ cm/s
- efflux ratio at 10 μM (Caco-2, Papp (B-A)/Papp (A-B), read-out: Outflow ratio): 3.8
Compound: CC(=O)N1CCO[C@@H](Cn2c(-c3c(F)cc(N4CCCC4=O)cc3Cl)nc3cc(C)ccc32)C1 [Compound 4, (S)-1-(4-(1-((4-acetylmorpholin-2-yl)methyl)-5-methyl-1H-benzo[d]imidazol-2-yl)-3-chloro-5-fluorophenyl)pyrrolidin-2-one]
